Laboratory results reported in patent publication US8163728B2, “Pyrazoles” (Hoffmann-La Roche Inc., priority 2009, dated 2012).
pKi: −log10 of the molar value.

Target: T1, GABA A α5 (Homo sapiens, UniProt P18507+P31644)
T1 construct: expressed in transfected cells; host or cells: HEK293 cells, transiently transfected; membranes prepared from cell pellets
Test: [3H]flumazenil competition binding, human GABA A α5β3γ2 receptors in HEK293 cell membranes
Conditions: human receptor α5β3γ2 transiently transfected in HEK293; 0.5 nM [3H]flumazenil; 1 hour at 4° C.; means of two determinations; read-out: hKi GABA A α5
Experimental: The affinity of compounds at GABA A receptor subtypes was measured by competition for [3H]flumazenil (85 Ci/mmol; Roche) binding to HEK293 cells expressing rat (stably transfected) or human (transiently transfected) receptors of composition α1β3γ2, α2β3γ2, α3β3γ2 and α5β3γ2.
Cell pellets were suspended in Krebs-tris buffer (4.8 mM KCl, 1.2 mM CaCl2, 1.2 mM MgCl2, 120 mM NaCl, 15 mM Tris; pH 7.5; binding assay buffer), homogenized by polytron for ca. 20 sec on ice and centrifuged for 60 min at 4° C. (50000 g; Sorvall, rotor: SM24=20000 rpm). The cell pellets were re-suspended in Krebs-tris buffer and homogenized by polytron for ca. 15 sec on ice. Protein was measured (Bradford method, Bio-Rad) and aliquots of 1 mL were prepared and stored at −80° C.
Assays were incubated to equilibrium for 1 hour at 4° C. and harvested onto GF/C uni-filters (Packard) by filtration using a Packard harvester and washing with ice-cold wash buffer (50 mM Tris; pH 7.5). After drying, filter-retained radioactivity was detected by liquid scintillation counting. Ki values were calculated using Excel-Fit (Microsoft) and are the means of two determinations.

Question: `Cc1onc(-c2ccc(F)cc2)c1COc1cc(C(=O)NCC(O)C(F)(F)F)n(C)n1` (single isomer, unassigned; (-)) [Example 68, (−)-5-[3-(4-Fluoro-phenyl)-5-methyl-isoxazol-4-ylmethoxy]-2-methyl-2H-pyrazole-3-carboxylic acid ((R or S)-3,3,3-trifluoro-2-hydroxy-propyl)-amide or enantiomer] was tested. Which pKi did it give?
Answer: The pKi was 8.28.

Question: `CCC(CO)NC(=O)c1cc(OCc2c(-c3ccc(F)cc3)noc2C)nn1C` (single isomer, unassigned; (-)) [Example 69, (−)-5-[3-(4-Fluoro-phenyl)-5-methyl-isoxazol-4-ylmethoxy]-2-methyl-2H-pyrazole-3-carboxylic acid ((R or S)-1-hydroxymethyl-propyl)-amide] was tested. Which pKi did it give?
Answer: The pKi was 8.46.

Question: With `Cc1onc(-c2ccccn2)c1COc1cc(C(=O)NC(C)CO)n(C)n1` (stereo in doubt) [Example 80, 2-Methyl-5-(5-methyl-3-pyridin-2-yl-isoxazol-4-ylmethoxy)-2H-pyrazole-3-carboxylic acid ((S)-2-hydroxy-1-methyl-ethyl)-amide] as the compound, how does the pKi read?
Answer: The pKi was 7.63.

Question: How did the pKi turn out when `CC(NC(=O)c1cc(OCc2c(-c3ccc(Cl)cc3)noc2CO)nn1C)C(F)(F)F` (stereo in doubt) [Example 106, 5-[3-(4-Chloro-phenyl)-5-hydroxymethyl-isoxazol-4-ylmethoxy]-2-methyl-2H-pyrazole-3-carboxylic acid ((S)-2,2,2-trifluoro-1-methyl-ethyl)-amide] was run?
Answer: The pKi was 8.09.

Question: `Cc1onc(-c2ccccn2)c1COc1cc(C(=O)NC(C)CO)nn1C` (stereo in doubt) [Example 114, 1-Methyl-5-(5-methyl-3-pyridin-2-yl-isoxazol-4-ylmethoxy)-1H-pyrazole-3-carboxylic acid ((S)-2-hydroxy-1-methyl-ethyl)-amide] was tested. Which pKi did it give?
Answer: Its pKi is 7.79.

Question: With `Cc1onc(-c2ccccc2)c1COc1cc(C(=O)N2CCOCC2)[nH]n1` [Example 1, [5-(5-Methyl-3-phenyl-isoxazol-4-ylmethoxy)-2H-pyrazol-3-yl]morpholin-4-yl-methanone] as the compound, how does the pKi read?
Answer: The pKi was 7.38.

Question: `Cc1onc(-c2ccccc2)c1COc1cc(C(=O)NC(C)C)[nH]n1` [Example 2, 5-(5-Methyl-3-phenyl-isoxazol-4-ylmethoxy)-2H-pyrazole-3-carboxylic acid isopropylamide] was tested. Which pKi did it give?
Answer: The pKi was 7.49.

Question: How did the pKi turn out when `Cc1onc(-c2ccccc2)c1COc1cc(C(=O)NC2CCOCC2)[nH]n1` [Example 3, 5-(5-Methyl-3-phenyl-isoxazol-4-ylmethoxy)-2H-pyrazole-3-carboxylic acid (tetrahydro-pyran-4-yl)-amide] was run?
Answer: Its pKi is 8.51.

Question: `Cc1onc(-c2ccccc2)c1COc1cc(C(=O)NN(C)C)[nH]n1` [Example 5, 5-(5-Methyl-3-phenyl-isoxazol-4-ylmethoxy)-2H-pyrazole-3-carboxylic acid N′,N′-dimethyl-hydrazide] was tested. Which pKi did it give?
Answer: Its pKi is 7.84.

Question: `Cc1onc(-c2ccccc2)c1COc1cc(C(=O)NCCO)[nH]n1` [Example 6, 5-(5-Methyl-3-phenyl-isoxazol-4-ylmethoxy)-2H-pyrazole-3-carboxylic acid (2-hydroxy-ethyl)-amide] was tested. Which pKi did it give?
Answer: Its pKi is 7.76.

Question: With `Cc1onc(-c2ccccc2)c1COc1cc(C(N)=O)[nH]n1` [Example 7, 5-(5-Methyl-3-phenyl-isoxazol-4-ylmethoxy)-2H-pyrazole-3-carboxylic acid amide] as the compound, how does the pKi read?
Answer: Its pKi is 7.44.

Question: How did the pKi turn out when `Cc1onc(-c2ccc(F)cc2)c1COc1cc(C(=O)NN2CCOCC2)[nH]n1` [Example 8, 5-[3-(4-Fluoro-phenyl)-5-methyl-isoxazol-4-ylmethoxy]-2H-pyrazole-3-carboxylic acid morpholin-4-ylamide] was run?
Answer: The pKi was 8.74.

Question: `Cc1onc(-c2ccc(F)cc2)c1COc1cc(C(=O)NN2CCCC2)[nH]n1` [Example 10, 5-[3-(4-Fluoro-phenyl)-5-methyl-isoxazol-4-ylmethoxy]-2H-pyrazole-3-carboxylic acid pyrrolidin-1-ylamide] was tested. Which pKi did it give?
Answer: The pKi was 8.42.

Question: `Cc1onc(-c2ccc(F)cc2)c1COc1cc(C(=O)NN(C)C)[nH]n1` [Example 11, 5-[3-(4-Fluoro-phenyl)-5-methyl-isoxazol-4-ylmethoxy]-2H-pyrazole-3-carboxylic acid N′,N′-dimethyl-hydrazide] was tested. Which pKi did it give?
Answer: The pKi was 8.31.

Question: With `Cc1onc(-c2ccc(F)cc2)c1COc1cc(C(=O)NC(C)C)[nH]n1` [Example 12, 5-[3-(4-Fluoro-phenyl)-5-methyl-isoxazol-4-ylmethoxy]-2H-pyrazole-3-carboxylic acid isopropylamide] as the compound, how does the pKi read?
Answer: Its pKi is 8.64.

Question: How did the pKi turn out when `Cc1onc(-c2ccc(F)cc2)c1COc1cc(C(=O)NC2CCOCC2)[nH]n1` [Example 13, 5-[3-(4-Fluoro-phenyl)-5-methyl-isoxazol-4-ylmethoxy]-2H-pyrazole-3-carboxylic acid (tetrahydro-pyran-4-yl)-amide] was run?
Answer: Its pKi is 9.30.

Question: How did the pKi turn out when `Cc1onc(-c2ccccn2)c1COc1cc(C(=O)NC(C)C)n[nH]1` [Example 14, 5-(5-Methyl-3-pyridin-2-yl-isoxazol-4-ylmethoxy)-1H-pyrazole-3-carboxylic acid isopropylamide] was run?
Answer: Its pKi is 8.03.

Question: `Cc1onc(-c2ccccn2)c1COc1cc(C(=O)NC2CCOCC2)n[nH]1` [Example 15, 5-(5-Methyl-3-pyridin-2-yl-isoxazol-4-ylmethoxy)-1H-pyrazole-3-carboxylic acid (tetrahydropyran-4-yl)-amide] was tested. Which pKi did it give?
Answer: Its pKi is 8.60.

Question: With `Cc1onc(-c2ccccn2)c1COc1cc(C(=O)N[C@@H](C)CO)n[nH]1` [Example 16, 5-(5-Methyl-3-pyridin-2-yl-isoxazol-4-ylmethoxy)-1H-pyrazole-3-carboxylic acid ((S)-2-hydroxy-1-methyl-ethyl)-amide] as the compound, how does the pKi read?
Answer: Its pKi is 7.95.

Question: `Cc1onc(-c2ccc(F)cn2)c1COc1cc(C(=O)NCC(F)(F)F)[nH]n1` [Example 17, 5-[3-(5-Fluoro-pyridin-2-yl)-5-methyl-isoxazol-4-ylmethoxy]-2H-pyrazole-3-carboxylic acid (2,2,2-trifluoro-ethyl)-amide] was tested. Which pKi did it give?
Answer: Its pKi is 8.92.

Question: How did the pKi turn out when `Cc1onc(-c2ccc(F)cn2)c1COc1cc(C(=O)NC(C)(C)C)[nH]n1` [Example 19, 5-[3-(5-Fluoro-pyridin-2-yl)-5-methyl-isoxazol-4-ylmethoxy]-2H-pyrazole-3-carboxylic acid tert-butylamide] was run?
Answer: Its pKi is 7.75.

Question: `Cc1onc(-c2ccc(F)cn2)c1COc1cc(C(=O)NCCO)[nH]n1` [Example 20, 5-[3-(5-Fluoro-pyridin-2-yl)-5-methyl-isoxazol-4-ylmethoxy]-2H-pyrazole-3-carboxylic acid (2-hydroxy-ethyl)-amide] was tested. Which pKi did it give?
Answer: Its pKi is 8.40.

Question: How did the pKi turn out when `Cc1onc(-c2ccc(F)cn2)c1COc1cc(C(=O)NC(C)C)[nH]n1` [Example 21, 5-[3-(5-Fluoro-pyridin-2-yl)-5-methyl-isoxazol-4-ylmethoxy]-2H-pyrazole-3-carboxylic acid isopropylamide] was run?
Answer: Its pKi is 8.60.

Question: `Cc1onc(-c2ccc(F)cn2)c1COc1cc(C(=O)NN(C)C)[nH]n1` [Example 22, 5-[3-(5-Fluoro-pyridin-2-yl)-5-methyl-isoxazol-4-ylmethoxy]-2H-pyrazole-3-carboxylic acid N′,N′-dimethyl-hydrazide] was tested. Which pKi did it give?
Answer: The pKi was 8.17.

Question: With `Cc1onc(-c2ccc(F)cn2)c1COc1cc(C(=O)NN2CCOCC2)[nH]n1` [Example 23, 5-[3-(5-Fluoro-pyridin-2-yl)-5-methyl-isoxazol-4-ylmethoxy]-2H-pyrazole-3-carboxylic acid morpholin-4-ylamide] as the compound, how does the pKi read?
Answer: Its pKi is 8.72.

Question: How did the pKi turn out when `Cc1onc(-c2ccc(F)cn2)c1COc1cc(C(=O)NN2CCCC2)[nH]n1` [Example 24, 5-[3-(5-Fluoro-pyridin-2-yl)-5-methyl-isoxazol-4-ylmethoxy]-2H-pyrazole-3-carboxylic acid pyrrolidin-1-ylamide] was run?
Answer: The pKi was 8.46.

Question: `O=C(NN1CCOCC1)c1cc(OCc2conc2-c2ccc(F)cn2)n[nH]1` [Example 25, 5-[3-(5-Fluoro-pyridin-2-yl)-isoxazol-4-ylmethoxy]-2H-pyrazole-3-carboxylic acid morpholin-4-ylamide] was tested. Which pKi did it give?
Answer: The pKi was 7.87.

Question: How did the pKi turn out when `CCCCc1noc(C)c1COc1cc(C(=O)NC2CCOCC2)[nH]n1` [Example 26, 5-(3-Butyl-5-methyl-isoxazol-4-ylmethoxy)-2H-pyrazole-3-carboxylic acid (tetrahydropyran-4-yl)-amide] was run?
Answer: The pKi was 8.64.

Question: With `CCCCc1noc(C)c1COc1cc(C(=O)N[C@@H](C)CO)[nH]n1` [Example 27, 5-(3-Butyl-5-methyl-isoxazol-4-ylmethoxy)-2H-pyrazole-3-carboxylic acid ((S)-2-hydroxy-1-methyl-ethyl)-amide] as the compound, how does the pKi read?
Answer: Its pKi is 8.11.

Question: With `CCCCc1noc(C)c1COc1cc(C(=O)NC(CO)CO)[nH]n1` [Example 29, 5-(3-Butyl-5-methyl-isoxazol-4-ylmethoxy)-2H-pyrazole-3-carboxylic acid (2-hydroxy-1-hydroxymethyl-ethyl)-amide] as the compound, how does the pKi read?
Answer: The pKi was 7.98.

Question: With `CCCCc1noc(C)c1COc1cc(C(=O)NCC(F)(F)F)[nH]n1` [Example 31, 5-(3-Butyl-5-methyl-isoxazol-4-ylmethoxy)-2H-pyrazole-3-carboxylic acid (2,2,2-trifluoro-ethyl)-amide] as the compound, how does the pKi read?
Answer: Its pKi is 8.19.

Question: How did the pKi turn out when `CCCCc1noc(C)c1COc1cc(C(=O)NC(C)C)[nH]n1` [Example 32, 5-(3-Butyl-5-methyl-isoxazol-4-ylmethoxy)-2H-pyrazole-3-carboxylic acid isopropylamide] was run?
Answer: Its pKi is 7.80.
